Numbers after ± are expanded uncertainties.
Experiment: mn = molality of the nth substance listed, in mol/kg
Settings: 101 kPa, Liquid, Vibrating tube method

NCCO [2-aminoethan-1-ol] + O
mass density [kg/m3]
Settings	293.16 K	297.14 K	301.14 K	305.14 K	309.14 K	313.14 K	317.14 K	320.14 K
m1 = 2.8	1004.53 ± 0.11	1003.31 ± 0.11	1001.95 ± 0.11	1000.48 ± 0.11	998.89 ± 0.11	997.21 ± 0.11	995.42 ± 0.11	994.02 ± 0.11
m1 = 7.01	1013.19 ± 0.12	1011.51 ± 0.12	1009.75 ± 0.12	1007.89 ± 0.12	1005.96 ± 0.12	1003.95 ± 0.12	1001.85 ± 0.12	1000.22 ± 0.12
